Results from patent US7335373B2, “Biocidal siloxane coating material containing N-halogenated amine and amide functional groups” (Auburn University, priority 2003, dated 2008).

Columns and labels:
[1] = after 5 washing cycles
[2] = Oxidative chlorine loading by iodometric/thiosulfate titration; conditions: cotton fabric treated directly with 2% by weight TTDD, chlorinated in 10 vol % bleach at pH 8 for 30 minutes

SMILES: CC1(C)CC2(CC(C)(C)N1)NC(=O)NC2=O [TTDD]
- titratable chlorine after washing ([1]; TTDD-treated chlorinated cotton fabric): no titratable chlorine
- rechlorination after washing ([1]; TTDD-treated cotton fabric): could not be rechlorinated
- Cl^+ loading [2]: 0.57%
